Laboratory results taken from patent US11098055B2, “Ester ACC inhibitors and uses thereof” (Gilead Apollo, LLC, priority 2015, dated 2021).
Values after ≈ are worked out from the molar mass of the structure shown. Where two headings read alike, the source gives them in different places.

How the values were obtained:
Rhizoctonia solani (Rs) = experiment: Growth inhibition assay of fungal pathogens; type: cell-based; settings: 48 h, read-out: Concentration at 90% Inhibition Rs
In short: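 Percent growth inhibition is scored at 48 h, by OD600 (blank-subtracted) and visual rating against the 2% DMSO control. Compounds were tested at final 50, 10, 2 ppm or 2, 0.4, 0.08 ppm on pathogen spores diluted in 17% V8 medium; mycelial plugs in ¼ PDB were used for Rhizoctonia.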

Diplodia maydis (Dm) = experiment: Growth inhibition assay of fungal pathogens; type: cell-based; settings: Stenocarpella maydis, 48 h, read-out: Concentration at 90% Inhibition Dm
In short: (§1)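 Read-out was OD600 with visual scoring at 48 h, expressed as percent inhibition relative to wells containing 2% DMSO alone. Test wells held spores in 17% V8 liquid medium, with compound at final levels of either 50, 10, 2 ppm or 2, 0.4, 0.08 ppm.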

[1] = test system: Collectotrichum graminicola (Cg); experiment: Growth inhibition assay of fungal pathogens; type: cell-based; settings: 48 h, read-out: Concentration at 90% Inhibition Cg
In short: as §1

[2] = test system: Fusarium moniliforme (Fm); experiment: Growth inhibition assay of fungal pathogens; type: cell-based; settings: Fusarium verticillioides, 48 h, read-out: Concentration at 90% Inhibition Fm
In short: as §1

Septoria tritici (St) = experiment: Growth inhibition assay of fungal pathogens; type: cell-based; settings: Zymoseptoria tritici, 48 h, read-out: Concentration at 90% Inhibition St
In short: as §1

[3] = test system: Fusarium virguliforme (Fv); experiment: Growth inhibition assay of fungal pathogens; type: cell-based; settings: 48 h, read-out: Concentration at 90% Inhibition Fv
In short: as §1

[4] = test system: Phytophthora capsici (Pc); experiment: Growth inhibition assay of fungal pathogens; type: cell-based; settings: 48 h, read-out: Concentration at 90% Inhibition Pc
In short: as §1

Botrtyis cinerea (Bc) = experiment: Growth inhibition assay of fungal pathogens; type: cell-based; settings: 48 h, read-out: Concentration at 90% Inhibition Bc
In short: as §1

fACC2 = fACC2 (UniProt Q00955); experiment: In vitro ACC2 inhibition assay (ADP-Glo), fungal ACC2; type: biochemical
Chain of fACC2 (Q00955 whole entry): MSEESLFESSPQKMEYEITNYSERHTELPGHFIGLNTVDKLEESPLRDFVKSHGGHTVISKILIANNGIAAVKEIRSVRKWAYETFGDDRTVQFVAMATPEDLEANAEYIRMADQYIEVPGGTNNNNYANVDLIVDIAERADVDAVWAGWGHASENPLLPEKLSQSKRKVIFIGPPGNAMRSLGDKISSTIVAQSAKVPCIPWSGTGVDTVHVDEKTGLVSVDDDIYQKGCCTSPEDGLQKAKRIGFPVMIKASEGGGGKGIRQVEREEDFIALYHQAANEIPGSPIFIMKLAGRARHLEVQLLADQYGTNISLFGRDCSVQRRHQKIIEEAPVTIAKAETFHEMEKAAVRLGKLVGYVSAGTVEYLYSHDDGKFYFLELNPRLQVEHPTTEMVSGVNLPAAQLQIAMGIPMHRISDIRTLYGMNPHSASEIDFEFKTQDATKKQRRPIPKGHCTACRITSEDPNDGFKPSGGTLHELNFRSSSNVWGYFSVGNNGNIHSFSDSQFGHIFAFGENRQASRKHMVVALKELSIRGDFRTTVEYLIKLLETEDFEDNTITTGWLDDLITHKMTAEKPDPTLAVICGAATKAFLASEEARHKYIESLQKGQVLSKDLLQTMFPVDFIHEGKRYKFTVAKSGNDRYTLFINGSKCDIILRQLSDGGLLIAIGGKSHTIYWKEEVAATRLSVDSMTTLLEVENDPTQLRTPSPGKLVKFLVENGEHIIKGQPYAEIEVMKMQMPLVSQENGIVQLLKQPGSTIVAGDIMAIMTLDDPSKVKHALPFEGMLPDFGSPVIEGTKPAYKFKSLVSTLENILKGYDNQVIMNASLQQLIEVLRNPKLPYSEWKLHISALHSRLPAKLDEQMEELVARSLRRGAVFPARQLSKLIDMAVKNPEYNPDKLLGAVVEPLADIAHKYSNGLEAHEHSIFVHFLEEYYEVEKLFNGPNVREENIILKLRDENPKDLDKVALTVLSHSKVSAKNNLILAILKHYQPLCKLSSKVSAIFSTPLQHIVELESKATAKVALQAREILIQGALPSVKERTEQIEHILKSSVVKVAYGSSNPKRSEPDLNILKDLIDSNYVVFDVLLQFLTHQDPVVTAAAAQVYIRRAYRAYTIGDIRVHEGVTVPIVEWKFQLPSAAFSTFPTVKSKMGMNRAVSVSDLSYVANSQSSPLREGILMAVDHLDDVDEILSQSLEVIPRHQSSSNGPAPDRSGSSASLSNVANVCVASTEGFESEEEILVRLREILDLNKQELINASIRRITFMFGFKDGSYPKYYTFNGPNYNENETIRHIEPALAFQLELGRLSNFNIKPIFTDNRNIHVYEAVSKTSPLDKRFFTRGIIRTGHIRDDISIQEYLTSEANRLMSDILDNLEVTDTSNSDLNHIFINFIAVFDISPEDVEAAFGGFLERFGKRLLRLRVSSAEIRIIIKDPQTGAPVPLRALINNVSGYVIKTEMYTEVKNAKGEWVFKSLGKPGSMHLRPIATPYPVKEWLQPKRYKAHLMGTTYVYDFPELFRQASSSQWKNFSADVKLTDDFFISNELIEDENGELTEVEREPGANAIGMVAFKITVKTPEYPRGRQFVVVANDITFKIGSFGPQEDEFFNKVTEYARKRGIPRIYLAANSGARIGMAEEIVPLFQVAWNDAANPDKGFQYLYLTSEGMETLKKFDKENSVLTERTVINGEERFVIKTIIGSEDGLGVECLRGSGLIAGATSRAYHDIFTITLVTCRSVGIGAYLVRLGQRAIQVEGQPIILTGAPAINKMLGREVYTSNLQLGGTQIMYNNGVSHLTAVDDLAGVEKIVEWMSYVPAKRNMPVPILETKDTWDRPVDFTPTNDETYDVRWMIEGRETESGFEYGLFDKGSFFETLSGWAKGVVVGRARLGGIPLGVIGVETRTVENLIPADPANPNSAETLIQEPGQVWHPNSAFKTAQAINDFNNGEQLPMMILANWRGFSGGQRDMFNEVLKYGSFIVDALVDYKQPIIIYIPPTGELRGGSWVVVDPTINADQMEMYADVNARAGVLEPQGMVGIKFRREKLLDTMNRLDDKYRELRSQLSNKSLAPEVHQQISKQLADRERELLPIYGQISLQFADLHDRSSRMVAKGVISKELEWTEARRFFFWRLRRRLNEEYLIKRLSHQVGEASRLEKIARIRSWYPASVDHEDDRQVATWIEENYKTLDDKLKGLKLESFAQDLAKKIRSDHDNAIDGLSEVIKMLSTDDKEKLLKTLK
In short: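 ADP-Glo luminescent ADP detection with 5 nM ACC2, 20 μM ATP, 20 μM acetyl-CoA, 12 mM NaHCO3, 2 mM DTT, 5% DMSO; compound (30 μM-0.00051 μM, 11 points) preincubated 15 min, reaction 60 min at room temperature. Percent inhibition against DMSO and positive controls; IC50 by four-parameter nonlinear fit.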

| Structure (SMILES) | IC90 (Rhizoctonia solani (Rs); Table 4b) | IC90 (Diplodia maydis (Dm); Table 4b) | IC90 ([1]; Table 4b) | IC90 ([2]; Table 4b) | IC90 (Septoria tritici (St); Table 4b) | IC90 ([3]; Table 4b) | IC90 ([4]; Table 4b) | IC90 (Botrtyis cinerea (Bc); Table 4b) | IC50 (fACC2; Table 2b (additional results)) | IC90 (Rhizoctonia solani (Rs); Table 4a) | IC90 (Diplodia maydis (Dm); Table 4a) | IC90 ([1]; Table 4a) | IC90 ([2]; Table 4a) | IC90 (Septoria tritici (St); Table 4a) | IC90 ([3]; Table 4a) | IC90 ([4]; Table 4a) | IC90 (Botrtyis cinerea (Bc); Table 4a) | IC50 (fACC2; Table 2a) |
| --- | --- | --- | --- | --- | --- | --- | --- | --- | --- | --- | --- | --- | --- | --- | --- | --- | --- | --- |
| CCNC(=O)C(C)(C)n1c(=O)c2c(C)c(C(=O)OCC)sc2n(C[C@H](OCCC#N)c2ccccc2OC)c1=O [Compound I-32, ethyl (R)-1-(2-(2-cyanoethoxy)-2-(2-methoxyphenyl)ethyl)-3-(1-(ethylamino)-2-methyl-1-oxopropan-2-yl)-5-methyl-2,4-dioxo-1,2,3,4-tetrahydrothieno[2,3-d]pyrimidine-6-carboxylate] | 2 µg/mL (≈ 3.5 µM) | 2 µg/mL (≈ 3.5 µM) | 2 µg/mL (≈ 3.5 µM) | 0.08 µg/mL (≈ 0.14 µM) | 10 µg/mL (≈ 17.5 µM) | 2 µg/mL (≈ 3.5 µM) | ≥ 50 µg/mL | 2 µg/mL (≈ 3.5 µM) | 0.3 to 3 nM | – | – | – | – | – | – | – | – | – |
| CCOC(=O)c1sc2c(c1C)c(=O)n(C(C)(C)C(=O)N1CCCC1)c(=O)n2C[C@H](OCCC#N)c1cc(F)ccc1OC [Compound I-16, (R)-ethyl 1-(2-(2-cyanoethoxy)-2-(5-fluoro-2-methoxy-phenyl)ethyl)-5-methyl-3-(2-methyl-1-oxo-1-(pyrrolidin-1-yl)propan-2-yl)-2,4-dioxo-1,2,3,4-tetrahydrothieno[2,3-d]pyrimidine-6-carboxylate] | 0.4 µg/mL (≈ 0.651 µM) | 2 µg/mL (≈ 3.25 µM) | 2 µg/mL (≈ 3.25 µM) | 0.08 µg/mL (≈ 0.13 µM) | ≥ 50 µg/mL | 2 µg/mL (≈ 3.25 µM) | ≥ 50 µg/mL | 2 µg/mL (≈ 3.25 µM) | 0.3 to 3 nM | 0.4 µg/mL (≈ 0.651 µM) | 2 µg/mL (≈ 3.25 µM) | 2 µg/mL (≈ 3.25 µM) | 0.08 µg/mL (≈ 0.13 µM) | ≥ 50 µg/mL | 2 µg/mL (≈ 3.25 µM) | ≥ 50 µg/mL | 2 µg/mL (≈ 3.25 µM) | 0.6 to 3 nM |
| CCOC(=O)c1sc2c(c1C)c(=O)n(C(C)(C)C(=O)N1CCCC1)c(=O)n2C[C@H](OC(C)C)c1ccccc1OC [Compound I-7, (R)-ethyl 1-(2-isopropoxy-2-(2-methoxyphenyl)ethyl)-5-methyl-3-(2-methyl-1-oxo-1-(pyrrolidin-1-yl)propan-2-yl)-2,4-dioxo-1,2,3,4-tetrahydrothieno[2,3-d]pyrimidine-6-carboxylate] | 0.08 µg/mL (≈ 0.137 µM) | 0.4 µg/mL (≈ 0.683 µM) | 0.4 µg/mL (≈ 0.683 µM) | 0.08 µg/mL (≈ 0.137 µM) | 2 µg/mL (≈ 3.41 µM) | 0.4 µg/mL (≈ 0.683 µM) | ≥ 50 µg/mL | 0.4 µg/mL (≈ 0.683 µM) | 0.3 to 3 nM | 0.08 µg/mL (≈ 0.137 µM) | 0.4 µg/mL (≈ 0.683 µM) | 0.4 µg/mL (≈ 0.683 µM) | 0.08 µg/mL (≈ 0.137 µM) | 10 µg/mL (≈ 17.1 µM) | 0.4 µg/mL (≈ 0.683 µM) | ≥ 50 µg/mL | 0.4 µg/mL (≈ 0.683 µM) | 0.6 to 3 nM |
| CCOC(=O)c1sc2c(c1C)c(=O)n([C@H](C)C(=O)NC(C)C)c(=O)n2C[C@H](OCCC#N)c1cc(F)ccc1OC [Compound I-21, ethyl 1-((R)-2-(2-cyanoethoxy)-2-(5-fluoro-2-methoxyphenyl)ethyl)-3-((R)-1-(isopropylamino)-1-oxopropan-2-yl)-5-methyl-2,4-dioxo-1,2,3,4-tetrahydrothieno[2,3-d]pyrimidine-6-carboxylate] | 0.08 µg/mL (≈ 0.136 µM) | 0.4 µg/mL (≈ 0.68 µM) | 0.4 µg/mL (≈ 0.68 µM) | 0.08 µg/mL (≈ 0.136 µM) | ≥ 50 µg/mL | 0.4 µg/mL (≈ 0.68 µM) | 10 µg/mL (≈ 17 µM) | 0.4 µg/mL (≈ 0.68 µM) | 0.3 to 3 nM | – | – | – | – | – | – | – | – | – |
| CCOC(=O)c1sc2c(c1C)c(=O)n(C(C)(C)C(=O)N1CCOCC1)c(=O)n2C[C@H](OC(C)C)c1ccccc1OC [Compound I-5, (R)-ethyl 1-(2-isopropoxy-2-(2-methoxyphenyl)ethyl)-5-methyl-3-(2-methyl-1-morpholino-1-oxopropan-2-yl)-2,4-dioxo-1,2,3,4-tetrahydrothieno[2,3-d]pyrimidine-6-carboxylate] | ≥ 50 µg/mL | 2 µg/mL (≈ 3.32 µM) | 10 µg/mL (≈ 16.6 µM) | 0.4 µg/mL (≈ 0.665 µM) | ≥ 50 µg/mL | 10 µg/mL (≈ 16.6 µM) | ≥ 50 µg/mL | 0.4 µg/mL (≈ 0.665 µM) | 3 to 10 nM | ≥ 50 µg/mL | 2 µg/mL (≈ 3.32 µM) | ≥ 50 µg/mL | 0.4 µg/mL (≈ 0.665 µM) | ≥ 50 µg/mL | ≥ 50 µg/mL | ≥ 50 µg/mL | 0.4 µg/mL (≈ 0.665 µM) | 3 to 10 nM |
| CCOC(=O)c1sc2c(c1C)c(=O)n([C@H](C)C(N)=O)c(=O)n2C[C@H](OCCC#N)c1cc(F)ccc1OC [Compound I-26, ethyl 3-((R)-1-amino-1-oxopropan-2-yl)-1-((R)-2-(2-cyanoethoxy)-2-(5-fluoro-2-methoxyphenyl)ethyl)-5-methyl-2,4-dioxo-1,2,3,4-tetrahydrothieno[2,3-d]pyrimidine-6-carboxylate] | 2 µg/mL (≈ 3.66 µM) | ≥ 50 µg/mL | ≥ 50 µg/mL | 10 µg/mL (≈ 18.3 µM) | ≥ 50 µg/mL | ≥ 50 µg/mL | ≥ 50 µg/mL | 10 µg/mL (≈ 18.3 µM) | 0.3 to 3 nM | – | – | – | – | – | – | – | – | – |
| CCOC(=O)c1sc2c(c1C)c(=O)n(C(C)(C)C(=O)NC(C)C)c(=O)n2C[C@H](OC[C@@H](C)C#N)c1cc(F)ccc1OC [Compound I-35, ethyl 1-((R)-2-((S)-2-cyanopropoxy)-2-(5-fluoro-2-methoxyphenyl)ethyl)-3-(1-(isopropylamino)-2-methyl-1-oxopropan-2-yl)-5-methyl-2,4-dioxo-1,2,3,4-tetrahydrothieno[2,3-d]pyrimidine-6-carboxylate] | 0.08 µg/mL (≈ 0.13 µM) | 0.4 µg/mL (≈ 0.649 µM) | 0.08 µg/mL (≈ 0.13 µM) | 0.08 µg/mL (≈ 0.13 µM) | 10 µg/mL (≈ 16.2 µM) | 0.4 µg/mL (≈ 0.649 µM) | ≥ 50 µg/mL | 0.4 µg/mL (≈ 0.649 µM) | 0.3 to 3 nM | – | – | – | – | – | – | – | – | – |
| CCOC(=O)c1sc2c(c1C)c(=O)n([C@@H](C)C(=O)NC(C)C)c(=O)n2C[C@H](O)c1cc(F)ccc1OC [Compound I-44, ethyl 1-((R)-2-(5-fluoro-2-methoxyphenyl)-2-hydroxyethyl)-3-((S)-1-(isopropylamino)-1-oxopropan-2-yl)-5-methyl-2,4-dioxo-1,2,3,4-tetrahydrothieno[2,3-d]pyrimidine-6-carboxylate] | ≥ 50 µg/mL | ≥ 50 µg/mL | ≥ 50 µg/mL | ≥ 50 µg/mL | ≥ 50 µg/mL | 10 µg/mL (≈ 18.7 µM) | ≥ 50 µg/mL | 10 µg/mL (≈ 18.7 µM) | 10 to 40 nM | – | – | – | – | – | – | – | – | – |
